Results on 32 compounds are retold here after US7135466B2 (Kirin Beer Kabushiki Kaisha, priority 1999, dated 2006).

The target of one assay is T1, PDGF-Ra (Homo sapiens, UniProt P16234).
T1 construct: host or cells: G-292 human osteosarcoma cells
Briefly: Inhibitory activity against PDGF-Ra phosphorylation by PDGF-AA stimulation using G292. Format: cell-based. The settings on record: for IC50: Pharmacological Test Example 1, > means inhibition at indicated concentration not more than 50%, < and << not less than 50%, read-out: PDGF (E) IC50; for inhibition at 0.1 µM: G292, figure in parentheses in >100( ), at 100 nM, read-out: PDGF (E) inhibition (%) at 100 nM. A digest of the protocol:
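Read-out: A450 from a sandwich ELISA (PY-20 capture, anti-PDGF-Ra detection, peroxidase colour) of lysates from G-292 cells given compound for 1 hr at 37 °C before a 5 min challenge with PDGF-AA at 50 ng/ml.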

The target in the next assay is T2, c-kit (Homo sapiens, UniProt P10721).
T2 construct: MO7e (human megakaryocytic leukemia cell line) which had been arrested for 20 hr; endogenous in cells; host or cells: MO7e human megakaryocytic leukemia cell line
Briefly: Inhibitory activity against c-kit autophosphorylation (MO7e cells, h-SCF). In kind it is cell-based. The settings on record: for IC50: MO7e cells, h-SCF 50 ng/ml, read-out: c-kit IC50; for inhibition at 1 µM: Mo7e, figure in parentheses in −( ), at 1000 nM. Summed up:
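First, human megakaryocytic leukemia MO7e cells arrested 20 hr receive compound for one hour. Second, SCF stimulation (50 ng/ml) runs 5 min, after which cells are solubilized. Third, tyrosine-phosphorylated c-kit in the lysate is quantified by sandwich ELISA with absorbance at 450 nm.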

T2 sequence (P10721 26-976): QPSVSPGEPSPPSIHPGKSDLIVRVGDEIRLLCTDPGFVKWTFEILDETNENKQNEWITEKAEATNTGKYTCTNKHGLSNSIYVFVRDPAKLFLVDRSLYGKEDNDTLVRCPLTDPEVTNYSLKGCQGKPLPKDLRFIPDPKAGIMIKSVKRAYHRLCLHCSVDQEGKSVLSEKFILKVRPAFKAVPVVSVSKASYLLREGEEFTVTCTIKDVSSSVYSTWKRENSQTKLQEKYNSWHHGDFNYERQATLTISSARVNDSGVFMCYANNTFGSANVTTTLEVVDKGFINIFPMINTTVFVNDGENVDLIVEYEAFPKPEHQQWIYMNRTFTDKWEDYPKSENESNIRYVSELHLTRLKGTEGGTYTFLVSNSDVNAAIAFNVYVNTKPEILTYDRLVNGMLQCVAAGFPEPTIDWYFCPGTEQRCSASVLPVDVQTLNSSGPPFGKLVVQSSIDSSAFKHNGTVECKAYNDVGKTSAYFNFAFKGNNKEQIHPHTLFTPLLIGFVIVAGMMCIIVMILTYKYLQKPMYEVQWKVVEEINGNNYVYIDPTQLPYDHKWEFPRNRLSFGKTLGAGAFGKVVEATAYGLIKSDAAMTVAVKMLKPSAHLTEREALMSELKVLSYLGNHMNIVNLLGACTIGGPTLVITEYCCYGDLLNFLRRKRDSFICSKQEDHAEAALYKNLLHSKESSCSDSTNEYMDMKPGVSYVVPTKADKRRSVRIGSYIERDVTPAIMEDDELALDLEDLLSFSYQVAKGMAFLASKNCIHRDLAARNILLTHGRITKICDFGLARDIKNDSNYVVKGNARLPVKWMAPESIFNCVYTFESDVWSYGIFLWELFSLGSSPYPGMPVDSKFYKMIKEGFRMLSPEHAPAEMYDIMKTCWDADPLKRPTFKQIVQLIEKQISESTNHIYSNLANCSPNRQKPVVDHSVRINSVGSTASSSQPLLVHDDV
T1 sequence (P16234 24-1089): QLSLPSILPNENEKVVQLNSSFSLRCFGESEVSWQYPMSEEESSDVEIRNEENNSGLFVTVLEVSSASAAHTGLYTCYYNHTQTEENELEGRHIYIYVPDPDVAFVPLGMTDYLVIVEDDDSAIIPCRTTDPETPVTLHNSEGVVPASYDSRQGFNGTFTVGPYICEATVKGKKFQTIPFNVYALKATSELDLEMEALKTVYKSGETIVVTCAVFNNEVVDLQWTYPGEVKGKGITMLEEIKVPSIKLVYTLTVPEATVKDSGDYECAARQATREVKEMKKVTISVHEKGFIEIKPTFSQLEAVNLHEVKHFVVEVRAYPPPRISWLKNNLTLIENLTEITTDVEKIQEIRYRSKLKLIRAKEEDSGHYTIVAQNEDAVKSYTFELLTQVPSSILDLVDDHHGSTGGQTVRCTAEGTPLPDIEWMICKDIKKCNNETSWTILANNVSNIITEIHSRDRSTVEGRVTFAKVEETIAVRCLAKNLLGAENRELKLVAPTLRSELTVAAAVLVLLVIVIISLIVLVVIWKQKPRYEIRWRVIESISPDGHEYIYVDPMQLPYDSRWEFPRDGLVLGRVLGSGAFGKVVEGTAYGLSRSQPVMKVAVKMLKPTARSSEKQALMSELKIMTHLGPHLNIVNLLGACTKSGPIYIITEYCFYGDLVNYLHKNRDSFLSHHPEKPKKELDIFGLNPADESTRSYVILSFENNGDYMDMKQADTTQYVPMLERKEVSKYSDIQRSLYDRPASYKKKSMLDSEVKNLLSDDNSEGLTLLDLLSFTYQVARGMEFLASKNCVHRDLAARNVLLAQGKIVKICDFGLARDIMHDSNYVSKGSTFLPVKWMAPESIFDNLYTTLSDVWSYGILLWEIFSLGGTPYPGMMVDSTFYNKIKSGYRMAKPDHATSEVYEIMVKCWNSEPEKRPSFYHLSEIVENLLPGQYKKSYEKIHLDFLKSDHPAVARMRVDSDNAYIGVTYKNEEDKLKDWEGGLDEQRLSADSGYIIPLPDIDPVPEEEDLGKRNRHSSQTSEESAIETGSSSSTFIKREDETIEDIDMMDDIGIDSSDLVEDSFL

A word on the IC50: it is the concentration that inhibits the measured activity by half. As to `COc1cc2nccc(Oc3ccc(NC(=O)OCCN4CCCCC4)c(C)c3C)c2cc1OC` [Example 305, 2-Piperidinoethyl N-{4-[(6,7-dimethoxy-4-quinolyl)oxy]-2,3-dimethylphenyl}carbamate], the IC50 was determined as 11 nM at PDGF-Ra and 221 nM at c-kit.
Taken in the same sequence, the figures for `COc1cc2nccc(Oc3ccc(NC(=O)OCCN4CCOCC4)cc3)c2cc1OC` [Example 306, 2-Morpholinoethyl N-{4-[(6,7-dimethoxy-4-quinolyl)oxy]phenyl}carbamate] were 11 nM and 72 nM.
As a reminder, the inhibition is the percentage by which the read-out fell short of the control. `COc1cc2nccc(Oc3cc(C)c(NC(=O)OCCN4CCOCC4)cc3C)c2cc1OC` [Example 307, 2-Morpholinoethyl N-{4-[(6,7-dimethoxy-4-quinolyl)oxy]-2,5-dimethylphenyl}carbamate]: on PDGF-Ra, the inhibition at 0.1 µM was found to be 49% and the half-inhibitory concentration (IC50) was greater than 100 nM. Moreover, at c-kit, the IC50 amounted to 165 nM.
For `COc1cc2nccc(Oc3ccc(NC(=O)OCCN4CCOCC4)c(C)c3C)c2cc1OC` [Example 308, 2-Morpholinoethyl N-{4-[(6,7-dimethoxy-4-quinolyl)oxy]-2,3-dimethylphenyl}carbamate], the results for the IC50 at PDGF-Ra and on c-kit were 20 nM and 101 nM, respectively.
Taken in the same sequence, the figures for `COc1cc2nccc(Oc3ccc(NC(=O)OCCCCCCN(C)C)cc3)c2cc1OC` [Example 309, 6-(Dimethylamino)hexyl N-{4-[(6,7-dimethoxy-4-quinolyl)oxy]phenyl}carbamate] were 10 nM and 285 nM.
The like results for `COc1cc2nccc(Oc3cc(C)c(NC(=O)OCCCCCCN(C)C)cc3C)c2cc1OC` [Example 310, 6-(Dimethylamino)hexyl N-{4-[(6,7-dimethoxy-4-quinolyl)oxy]-2,5-dimethylphenyl}carbamate] were, in that order, 67 nM and 607 nM.
For `COc1cc2nccc(Oc3ccc(NC(=O)OCCCCCCN(C)C)c(C)c3C)c2cc1OC` [Example 311, 6-(Dimethylamino)hexyl N-{4-[(6,7-dimethoxy-4-quinolyl)oxy]-2,3-dimethylphenyl}carbamate], the IC50 at PDGF-Ra was less than 10 nM; at c-kit, 329 nM.
Taken in the same sequence, the figures for `COc1cc2ncnc(Oc3ccc(NC(=O)OC4CCCCC4)cc3)c2cc1OC` [Example 312, Cyclohexyl N-{4-[(6,7-dimethoxy-4-quinazolinyl)oxy]phenyl}carbamate] were less than 10 nM and 29 nM.
Regarding `COc1cc2ncnc(Oc3ccc(NC(=O)OC4CCCCC4)c(Cl)c3)c2cc1OC` [Example 313], the IC50 is less than 10 nM on PDGF-Ra and 330 nM at c-kit.
Taken in the same sequence, the figures for `CCCOC(=O)Nc1ccc(Oc2ncnc3cc(OC)c(OC)cc23)cc1` [Example 314, Propyl N-{4-[(6,7-dimethoxy-4-quinazolinyl)oxy]phenyl}carbamate] were 44 nM and 32 nM.
The like results for `COc1ccccc1COC(=O)Nc1ccc(Oc2ncnc3cc(OC)c(OC)cc23)cc1` [Example 315, 2-Methoxybenzyl N-{4-[(6,7-dimethoxy-4-quinazolinyl)oxy]phenyl}carbamate] were, in that order, less than 10 nM and 82 nM.
As to `COc1ccccc1COC(=O)Nc1ccc(Oc2ncnc3cc(OC)c(OC)cc23)cc1Cl` [Example 316, 2-Methoxybenzyl N-{2-chloro-4-[(6,7-dimethoxy-4-quinazolinyl)oxy]phenyl}carbamate], the concentration for half-maximal inhibition (IC50) on PDGF-Ra came to 10 nM. For the same compound, the inhibition at 1 µM on c-kit amounted to 40%.
Turning to `COc1cc2ncnc(Oc3ccc(NC(=O)OCc4ccccc4Cl)cc3)c2cc1OC` [Example 317, 2-Chlorobenzyl N-{4-[(6,7-dimethoxy-4-quinazolinyl)oxy]phenyl}carbamate], the half-inhibitory concentration (IC50) at PDGF-Ra is less than 10 nM; on c-kit, 136 nM.
As to `COc1cc2ncnc(Oc3ccc(NC(=O)OCc4ccccc4Cl)c(Cl)c3)c2cc1OC` [Example 318, 2-Chlorobenzyl N-{2-chloro-4-[(6,7-dimethoxy-4-quinazolinyl)oxy]phenyl}carbamate], the figures for the IC50 on PDGF-Ra and on c-kit were 10 nM and 418 nM, respectively.
The like results for `COc1cc2ncnc(Oc3ccc(NC(=O)OCc4ccccc4C)cc3)c2cc1OC` [Example 319, 2-Methylbenzyl N-{4-[(6,7-dimethoxy-4-quinazolinyl)oxy]phenyl}carbamate] were, in that order, less than 10 nM and 98 nM.
In the case of `COc1cc2ncnc(Oc3ccc(NC(=O)OCc4ccccc4C)c(Cl)c3)c2cc1OC` [Example 320, 2-Methylbenzyl N-{2-chloro-4-[(6,7-dimethoxy-4-quinazolinyl)oxy]phenyl}carbamate], the half-maximal inhibitory concentration (IC50) at PDGF-Ra was less than 10 nM; at c-kit, 596 nM.
Take `CCCCOC(=O)Nc1ccc(Oc2ccnc3cc(OC)c(OC)cc23)cc1` [Example 321, Butyl N-{4-[(6,7-dimethoxy-4-quinolyl)oxy]phenyl}carbamate]: the figures for the half-inhibitory concentration (IC50) at PDGF-Ra and on c-kit were less than 10 nM and 37 nM, respectively.
Take `CCCCOC(=O)Nc1cc(C)c(Oc2ccnc3cc(OC)c(OC)cc23)cc1C` [Example 322, Butyl N-{4-[(6,7-dimethoxy-4-quinolyl)oxy]-2,5-dimethylphenyl}carbamate]: the IC50 on PDGF-Ra was less than 10 nM; on c-kit it was 60 nM.
Taken in the same sequence, the figures for `CCCCOC(=O)Nc1ccc(Oc2ccnc3cc(OC)c(OC)cc23)c(C)c1C` [Example 323, Butyl N-{4-[(6,7-dimethoxy-4-quinolyl)oxy]-2,3-dimethylphenyl}carbamate] were less than 10 nM and less than 30 nM.
Consider `COc1cc2nccc(Oc3ccc(NC(=O)OC(C)C)cc3)c2cc1OC` [Example 324, Isopropyl N-{4-[(6,7-dimethoxy-4-quinolyl)oxy]phenyl}carbamate], for which the 50% inhibitory concentration (IC50) at PDGF-Ra was 12 nM; at c-kit, 64 nM.
On to `COc1cc2nccc(Oc3ccc(NC(=O)OC(C)C)c(C)c3C)c2cc1OC` [Example 325, Isopropyl N-{4-[(6,7-dimethoxy-4-quinolyl)oxy]-2,3-dimethylphenyl}carbamate], for which the concentration for half-maximal inhibition (IC50) at PDGF-Ra was less than 10 nM; on c-kit it was 46 nM.
In the case of `CCCCCCCCCCCCCCCCCCOC(=O)Nc1ccc(Oc2ccnc3cc(OC)c(OC)cc23)cc1` [Example 326, Octadecyl N-{4-[(6,7-dimethoxy-4-quinolyl)oxy]phenyl}carbamate], on PDGF-Ra, the inhibition at 0.1 µM stood at 31% and the IC50 is greater than 100 nM. In addition, the inhibition at 1 µM on c-kit is 18%.
Taken in the same sequence, the figures for `CCCCCCCCCCCCCCCCCCOC(=O)Nc1cc(C)c(Oc2ccnc3cc(OC)c(OC)cc23)cc1C` [Example 327, Octadecyl N-{4-[(6,7-dimethoxy-4-quinolyl)oxy]-2,5-dimethylphenyl}carbamate] were 30%, greater than 100 nM and 6%.
Consider `CCCCCCCCCCCCCCCCCCOC(=O)Nc1ccc(Oc2ccnc3cc(OC)c(OC)cc23)c(C)c1C` [Example 328, Octadecyl N-{4-[(6,7-dimethoxy-4-quinolyl)oxy]-2,3-dimethylphenyl}carbamate], for which, on PDGF-Ra, the inhibition at 0.1 µM came to 22% and the IC50 is greater than 100 nM. For the same compound, the inhibition at 1 µM on c-kit was determined as 10%.
With `CCCCC(CC)OC(=O)Nc1ccc(Oc2ccnc3cc(OC)c(OC)cc23)cc1` (centres unmarked) [Example 329, 1-Ethylpentyl N-{4-[(6,7-dimethoxy-4-quinolyl)oxy]phenyl}carbamate], the IC50 was less than 10 nM on PDGF-Ra and 253 nM at c-kit.
For the compound `CCCCC(CC)OC(=O)Nc1cc(C)c(Oc2ccnc3cc(OC)c(OC)cc23)cc1C` (centres unmarked) [Example 330, 1-Ethylpentyl N-{4-[(6,7-dimethoxy-4-quinolyl)oxy]-2,5-dimethylphenyl}carbamate], the concentration for half-maximal inhibition (IC50) was 12 nM on PDGF-Ra and 467 nM on c-kit.
Regarding `CCCCC(CC)OC(=O)Nc1ccc(Oc2ccnc3cc(OC)c(OC)cc23)c(C)c1C` (centres unmarked) [Example 331, 1-Ethylpentyl N-{4-[(6,7-dimethoxy-4-quinolyl)oxy]-2,3-dimethylphenyl}carbamate], the results for the IC50 on PDGF-Ra and at c-kit were less than 10 nM and 377 nM, respectively.
The like results for `CCCC(CCC)OC(=O)Nc1ccc(Oc2ccnc3cc(OC)c(OC)cc23)cc1` [Example 332, 1-Propylbutyl N-{4-[(6,7-dimethoxy-4-quinolyl)oxy]phenyl}carbamate] were, in that order, less than 10 nM and 259 nM.
The like results for `CCCC(CCC)OC(=O)Nc1cc(C)c(Oc2ccnc3cc(OC)c(OC)cc23)cc1C` [Example 333, 1-Propylbutyl N-{4-[(6,7-dimethoxy-4-quinolyl)oxy]-2,5-dimethylphenyl}carbamate] were, in that order, 12 nM and 712 nM.
For `CCCC(CCC)OC(=O)Nc1ccc(Oc2ccnc3cc(OC)c(OC)cc23)c(C)c1C` [Example 334, 1-Propylbutyl N-{4-[(6,7-dimethoxy-4-quinolyl)oxy]-2,3-dimethylphenyl}carbamate], the 50% inhibitory concentration (IC50) is less than 10 nM on PDGF-Ra and 484 nM on c-kit.
The like results for `CCCCCCOC(=O)Nc1ccc(Oc2ncnc3cc(OC)c(OC)cc23)cc1` [Example 335, Hexyl N-{4-[(6,7-dimethoxy-4-quinazolinyl)oxy]phenyl}carbamate] were, in that order, less than 10 nM and less than 30 nM.
As for `CCCCCCOC(=O)Nc1ccc(Oc2ncnc3cc(OC)c(OC)cc23)cc1Cl` [Example 336, Hexyl N-{2-chloro-4-[(6,7-dimethoxy-4-quinazolinyl)oxy]phenyl}carbamate], the IC50 was 14 nM at PDGF-Ra and 109 nM on c-kit.
